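The compound was tested at five concentrations on cells cultured in 96-well plates, with a 48-hour exposure period. TGI: total growth inhibition.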
Tests used:
Test in all cases: NCI anticancer screen, dose series, 48 h
UACC-62 melanoma = tested on: UACC-62 melanoma
NCI-H226 lung = tested on: NCI-H226 lung
786-0 renal = tested on: 786-0 renal
HCT-15 colon = tested on: HCT-15 colon
NCI-H23 lung = tested on: NCI-H23 lung
OVCAR-5 ovarian = tested on: OVCAR-5 ovarian
HT29 colon = tested on: HT29 colon
MCF7 breast = tested on: MCF7 breast
U251 CNS = tested on: U251 CNS
SK-MEL-5 melanoma = tested on: SK-MEL-5 melanoma
RPMI-8226 leukemia = tested on: RPMI-8226 leukemia
COLO 205 colon = tested on: COLO 205 colon
EKVX NSCLC = tested on: EKVX NSCLC
HOP-62 NSCLC = tested on: HOP-62 NSCLC
M14 melanoma = tested on: M14 melanoma
SK-OV-3 ovarian = tested on: SK-OV-3 ovarian
UACC-257 melanoma = tested on: UACC-257 melanoma
SN12C renal = tested on: SN12C renal
A549 NSCLC = tested on: A549 NSCLC
SF-539 CNS = tested on: SF-539 CNS
MDA-N = tested on: MDA-N
BT-549 breast = tested on: BT-549 breast
SF-295 CNS = tested on: SF-295 CNS
SK-MEL-2 melanoma = tested on: SK-MEL-2 melanoma
HS 578T breast = tested on: HS 578T breast
HL-60(TB) leukemia = tested on: HL-60(TB) leukemia
MDA-MB-231 breast = tested on: MDA-MB-231 breast
T-47D breast = tested on: T-47D breast
DU-145 prostate = tested on: DU-145 prostate
RXF 393 renal = tested on: RXF 393 renal
K-562 leukemia = tested on: K-562 leukemia
LOX IMVI melanoma = tested on: LOX IMVI melanoma
HCC-2998 colon = tested on: HCC-2998 colon
A498 renal = tested on: A498 renal
PC-3 prostate = tested on: PC-3 prostate
MOLT-4 leukemia = tested on: MOLT-4 leukemia
HOP-92 NSCLC = tested on: HOP-92 NSCLC
SNB-75 CNS = tested on: SNB-75 CNS
OVCAR-3 ovarian = tested on: OVCAR-3 ovarian
OVCAR-8 ovarian = tested on: OVCAR-8 ovarian
SR leukemia = tested on: SR leukemia
CAKI-1 renal = tested on: CAKI-1 renal
SW-620 colon = tested on: SW-620 colon
CCRF-CEM leukemia = tested on: CCRF-CEM leukemia
IGROV1 ovarian = tested on: IGROV1 ovarian
SF-268 CNS = tested on: SF-268 CNS
HCT-116 colon = tested on: HCT-116 colon
SK-MEL-28 melanoma = tested on: SK-MEL-28 melanoma
UO-31 renal = tested on: UO-31 renal
MDA-MB-435 = tested on: MDA-MB-435
KM12 colon = tested on: KM12 colon
ACHN renal = tested on: ACHN renal
NCI-H522 lung = tested on: NCI-H522 lung
NCI-H460 lung = tested on: NCI-H460 lung
MALME-3M melanoma = tested on: MALME-3M melanoma
SNB-19 CNS = tested on: SNB-19 CNS
TK-10 renal = tested on: TK-10 renal
NCI/ADR-RES ovarian = tested on: NCI/ADR-RES ovarian

## Oc1ccccc1C(c1cc2c(cc1O)OCO2)N1CCOCC1 (configuration not stated)
UACC-62 melanoma
  TGI: 32.3 µM
NCI-H226 lung
  TGI: > 100 µM
786-0 renal
  TGI: 22.6 µM
HCT-15 colon
  TGI: 36.8 µM
NCI-H23 lung
  TGI: 46.6 µM
OVCAR-5 ovarian
  TGI: 57.8 µM
HT29 colon
  TGI: 35.2 µM
MCF7 breast
  TGI: 38.3 µM
U251 CNS
  TGI: 30.2 µM
SK-MEL-5 melanoma
  TGI: 31.7 µM
RPMI-8226 leukemia
  TGI: 41.7 µM
COLO 205 colon
  TGI: 34.8 µM
EKVX NSCLC
  TGI: > 100 µM
HOP-62 NSCLC
  TGI: > 100 µM
M14 melanoma
  TGI: 34.3 µM
SK-OV-3 ovarian
  TGI: > 100 µM
UACC-257 melanoma
  TGI: 36.1 µM
SN12C renal
  TGI: 34.3 µM
A549 NSCLC
  TGI: 57.6 µM
SF-539 CNS
  TGI: 39.2 µM
MDA-N
  TGI: 37.6 µM
BT-549 breast
  TGI: 30.9 µM
SF-295 CNS
  TGI: 41.6 µM
SK-MEL-2 melanoma
  TGI: 36 µM
HS 578T breast
  TGI: 56.4 µM
HL-60(TB) leukemia
  TGI: 4.27 µM
MDA-MB-231 breast
  TGI: 36.1 µM
T-47D breast
  TGI: 33.8 µM
DU-145 prostate
  TGI: > 100 µM
RXF 393 renal
  TGI: 30.8 µM
K-562 leukemia
  TGI: 23.5 µM
LOX IMVI melanoma
  TGI: 43.4 µM
HCC-2998 colon
  TGI: 33.9 µM
A498 renal
  TGI: 42.2 µM
PC-3 prostate
  TGI: 31.6 µM
MOLT-4 leukemia
  TGI: 40.6 µM
HOP-92 NSCLC
  TGI: 34.1 µM
SNB-75 CNS
  TGI: 32 µM
OVCAR-3 ovarian
  TGI: 31.6 µM
OVCAR-8 ovarian
  TGI: 44.7 µM
SR leukemia
  TGI: 24.6 µM
CAKI-1 renal
  TGI: 35.9 µM
SW-620 colon
  TGI: 70.8 µM
CCRF-CEM leukemia
  TGI: 5.26 µM
IGROV1 ovarian
  TGI: 35.7 µM
SF-268 CNS
  TGI: 36.9 µM
HCT-116 colon
  TGI: 31.5 µM
SK-MEL-28 melanoma
  TGI: 38.5 µM
UO-31 renal
  TGI: 29.3 µM
MDA-MB-435
  TGI: 34.9 µM
KM12 colon
  TGI: 43 µM
ACHN renal
  TGI: 31.5 µM
NCI-H522 lung
  TGI: 24.3 µM
NCI-H460 lung
  TGI: 72.7 µM
MALME-3M melanoma
  TGI: 32.2 µM
SNB-19 CNS
  TGI: 37.2 µM

## O=c1c2c3ccccc3[nH]c2c2cccc3c2n1CCC3
UACC-62 melanoma
  TGI: > 100 µM
NCI-H226 lung
  TGI: > 100 µM
786-0 renal
  TGI: > 100 µM
HCT-15 colon
  TGI: > 100 µM
NCI-H23 lung
  TGI: > 100 µM
OVCAR-5 ovarian
  TGI: > 100 µM
TK-10 renal
  TGI: > 100 µM
HT29 colon
  TGI: > 100 µM
MCF7 breast
  TGI: > 100 µM
U251 CNS
  TGI: > 100 µM
SK-MEL-5 melanoma
  TGI: 79.2 µM
NCI/ADR-RES ovarian
  TGI: > 100 µM
COLO 205 colon
  TGI: > 100 µM
EKVX NSCLC
  TGI: 95.1 µM
HOP-62 NSCLC
  TGI: > 100 µM
M14 melanoma
  TGI: > 100 µM
SK-OV-3 ovarian
  TGI: > 100 µM
UACC-257 melanoma
  TGI: > 100 µM
SN12C renal
  TGI: > 100 µM
A549 NSCLC
  TGI: > 100 µM
SF-539 CNS
  TGI: > 100 µM
MDA-N
  TGI: > 100 µM
BT-549 breast
  TGI: 91 µM
SF-295 CNS
  TGI: > 100 µM
HS 578T breast
  TGI: > 100 µM
MDA-MB-231 breast
  TGI: > 100 µM
T-47D breast
  TGI: > 100 µM
DU-145 prostate
  TGI: > 100 µM
RXF 393 renal
  TGI: > 100 µM
K-562 leukemia
  TGI: > 100 µM
HCC-2998 colon
  TGI: > 100 µM
A498 renal
  TGI: > 100 µM
PC-3 prostate
  TGI: > 100 µM
MOLT-4 leukemia
  TGI: 86 µM
HOP-92 NSCLC
  TGI: > 100 µM
SNB-75 CNS
  TGI: > 100 µM
OVCAR-3 ovarian
  TGI: > 100 µM
OVCAR-8 ovarian
  TGI: > 100 µM
SR leukemia
  TGI: 67.5 µM
SW-620 colon
  TGI: > 100 µM
CCRF-CEM leukemia
  TGI: > 100 µM
IGROV1 ovarian
  TGI: > 100 µM
SF-268 CNS
  TGI: > 100 µM
HCT-116 colon
  TGI: > 100 µM
SK-MEL-28 melanoma
  TGI: > 100 µM
MDA-MB-435
  TGI: > 100 µM
KM12 colon
  TGI: > 100 µM
ACHN renal
  TGI: > 100 µM
NCI-H460 lung
  TGI: > 100 µM
MALME-3M melanoma
  TGI: 71.1 µM
SNB-19 CNS
  TGI: > 100 µM

Source: PubChem BioAssay (NCI)
